Laboratory results reported in US8022066B2, “2-(2-hydroxyphenyl) benzothiadiazines useful for treating obesity and diabetes” (High Point Pharmaceuticals, LLC, priority 2006, dated 2011).

## Cc1c(Br)cc(C(C)(C)C)c(O)c1C1=Nc2cc(Cl)ccc2S(=O)(=O)N1 [Example 1, 4-Bromo-6-tert-butyl-2-(6-chloro-1,1-dioxo-1,2-dihydro-1λ^6-benzo[1,2,4]thiadiazin-3-yl)-3-methylphenol]
  melting point: 270 to 271 °C (dec.)
